Counter-ions that a name gives are not always drawn.
Target: T1, PD brain-derived alpha-synuclein aggregates (Homo sapiens, UniProt P37840)
T1 construct: from tissue; host or cells: human PD donor brain, sarkosyl-insoluble pellet
Assay: Micro-radiobinding competition assay
Assay type: binding
Settings: for Competition at 100 nM (%): 100 nM example compound; for Competition at 100 nM (%) / Competition at 1 μM (%): competition over [3H]-alpha-syn reference ligand (20 nM or 30 nM), human PD brain-derived a-syn aggregates; for Competition at 1 μM (%): 1 μM example compound; for Ki: mean of two independent experiments, PD brain-derived homogenates from two different donors
Procedure: The procedure was adapted from the protocol described in Spillantini et al., 1998. Frozen tissue blocks from PD donors were thawed on ice and homogenized using a glass dounce homogenizer. The homogenate was then centrifuged at 11,000×g (12,700 RPM) in an ultracentrifuge (Beckman, XL100K) for 20 minutes at 4° C. using a pre-cooled 70.1 rotor (Beckman, 342184). Pellets were resuspended in extraction buffer [10 mM Tris-HCl pH 7.4, 10% sucrose, 0.85 M NaCl, 1% protease inhibitor (Calbiochem 539131), 1 mM EGTA, 1% phosphatase inhibitor (Sigma P5726 and P0044)] and centrifuged at 15,000×g (14,800 RPM, a 70.1 Ti rotor) for 20 minutes at 4° C. Pellets were discarded and sarkosyl (20% stock solution, Sigma L7414) was added to the supernatants to a final concentration of 1% and stirred at room temperature for one hour. This solution was then centrifuged at 100,000×g (38,000 RPM, 70.1 Ti rotor) for one hour at 4° C. Pellets containing enriched alpha-synuclein aggregates were resuspended in PBS per gram of brain initially used and stored at −80° C. until use.
PD brain-derived alpha-synuclein aggregates were spotted onto microarray slides. The slides were incubated with [^3H]-alpha-synuclein reference at 20 nM or 30 nM and the example compounds (non-radiolabelled) at 1 μM and 100 nM. In some cases, the non-radiolabelled example compounds were further assessed for a range of different concentrations, varying from 0.05 nM to 2 μM. After incubation, slides were washed and scanned by a real-time autoradiography system (BeaQuant, ai4R). Quantification of signal was performed by using the image analysis software Beamage (ai4R).
Non-specific signal was determined with an excess of non-radiolabelled alpha-syn reference compound (2 μM) and specific binding was calculated by subtracting the non-specific signal from the total signal. Competition was calculated as percentage, where 0% was defined as the specific binding in the presence of vehicle and 100% as the values obtained in the presence of excess of the non-radiolabelled alpha-syn reference compound. Ki values were calculated in GraphPad Prism7 by applying a nonlinear regression curve fit using a one site, specific binding model. All measurements were performed with at least two technical replicates. For compounds tested in more than one experiment, the mean of the replicates or Ki values in independent experiments is reported.

Competition at 100 nM (%)	Competition at 1 μM (%)	Ki [nM]	SMILES
82	100		Cn1cc(N2Cc3cc(-c4ccc(N5CC[C@@H](F)C5)nc4)cn3C2=O)cn1 [Example 6, (R)-6-(6-(3-fluoropyrrolidin-1-yl)pyridin-3-yl)-2-(1-methyl-1H-pyrazol-4-yl)-1,2-dihydro-3H-pyrrolo[1,2-c]imidazol-3-one Hydrogen Chloride Salt]
69	85		O=C1N(c2cccnc2)Cc2cc(-c3ccc(N4CC[C@H](F)C4)nc3)cn21 [Example 7, (S)-6-(6-(3-fluoropyrrolidin-1-yl)pyridin-3-yl)-2-(pyridin-3-yl)-1,2-dihydro-3H-pyrrolo[1,2-c]imidazol-3-one Hydrogen Chloride Salt]

The next lines start with the compound.

SMILES	Competition at 100 nM (%)	Competition at 1 μM (%)	Ki [nM]
O=C1N(c2cccnc2)Cc2cc(-c3ccc(N4CC[C@@H](F)C4)nc3)cn21 [Example 1, (R)-6-(6-(3-fluoropyrrolidin-1-yl)pyridin-3-yl)-2-(pyridin-3-yl)-1H-pyrrolo[1,2-c]imidazol-3(2H)-one Hydrochloride]	75	95	
O=C1N(c2cccnc2)Cc2nc(-c3ccc(N4CC[C@@H](F)C4)nc3)cn21 [Example 2, (R)-2-(6-(3-fluoropyrrolidin-1-yl)pyridin-3-yl)-6-(pyridin-3-yl)-6,7-dihydro-5H-imidazo[1,5-a]imidazol-5-one Hydrochloride]	63	86	124
O=C1N(c2cccnc2)Cc2nc(-c3ccc(N4CC[C@H](F)C4)nc3)cn21 [Example 3, (S)-2-(6-(3-fluoropyrrolidin-1-yl)pyridin-3-yl)-6-(pyridin-3-yl)-6,7-dihydro-5H-imidazo[1,5-a]imidazol-5-one Hydrochloride]	59	85	97
O=C1N(c2cccnc2)Cc2cc(-c3ccc(F)nc3)cn21 [Example 4, 6-(6-fluoropyridin-3-yl)-2-(pyridin-3-yl)-1H-pyrrolo[1,2-c]imidazol-3(2H)-one]	51	52	
Cn1cc(N2Cc3cc(-c4ccc(N5CC[C@H](F)C5)nc4)cn3C2=O)cn1 [Example 5, (S)-6-(6-(3-fluoropyrrolidin-1-yl)pyridin-3-yl)-2-(1-methyl-1H-pyrazol-4-yl)-1,2-dihydro-3H-pyrrolo[1,2-c]imidazol-3-one Hydrogen Chloride Salt]	87	102	

Reference: patent US20260207794A1, “NOVEL COMPOUNDS FOR DIAGNOSIS” (AC IMMUNE SA, priority 2022, published 2026)
